The results in this text go back to ChEMBL document CHEMBL1149609, “Synthesis and evaluation of human T cell stimulating activity of an alpha-sulfatide analogue” (Bioorg Med Chem, 2007).

Common to all, as to format: functional
The species named for assay [1] is Homo sapiens. As to the kind of experiment: Stimulation of sulfatide-specific CD1a-restricted Tcell clone K34B9.1 assessed as IL4 release after 48 hrs by ELISA.
The species named for assay [2] is Homo sapiens. As to the kind of experiment: Stimulation of sulfatide-specific CD1a-restricted Tcell clone K34B9.1 assessed as gammaIFN release after 48 hrs by ELISA. For orientation: ELISA stands for enzyme-linked immunosorbent assay.
The species named for assay [3] is Homo sapiens. As to the kind of experiment: Stimulation of CD1d-restricted iNKTcell clone BGA01 assessed as IL4 release after 48 hrs by ELISA.
Assay [4] is filed under the species Homo sapiens. As to the kind of experiment: Stimulation of CD1d-restricted iNKTcell clone BGA01 assessed as gammaIFN release after 48 hrs by ELISA.
Assay [5] is filed under the species Homo sapiens. As to the kind of experiment: Stimulation of CD1d-restricted iNKTcell clone BGA89 assessed as IL4 release after 48 hrs by ELISA.
Assay [6] is filed under the species Homo sapiens. As to the kind of experiment: Stimulation of CD1d-restricted iNKTcell clone BGA89 assessed as gammaIFN release after 48 hrs by ELISA.

Structures are written as SMILES. Calls of active or inactive are those of the source. The rule behind the calls is not given here.

With `CCCCCCCCCCCCC/C=C/[C@@H](O)[C@H](CO[C@H]1O[C@H](CO)[C@H](O)[C@H](OS(=O)(=O)O)[C@H]1O)NC(=O)CCCCCCCCCCCCCCCCCCCCC`, the outcome in assay [1] and in assay [2] was inactive. For the same molecule, the outcome in assay [3], in assay [4], in assay [5] and in assay [6] was Active.
